This is an account of results in patent publication US20170107212A1, “NOVEL COMPOUNDS” (Bayer Pharma Aktiengesellschaft, priority 2014, published 2017).

Molecules are shown by their SMILES. pIC50: −log10 of the molar value. Where a name gives a salt, the structure may show the parent alone.

Test [1] concerns constitutive active colorectal cancer cell (CRC) Wnt pathway, HCT116 TOPFlash. As to the kind of experiment: Cellular reporter assay, HCT116 Super TopFlash (constitutive active Wnt pathway), luciferase expression. It counts as cell-based. As to conditions: Homo sapiens, HCT-116, 36 h, HCT116 Super TopFlash reporter cells, 36 hours incubation, dilution series 50 μM to 15 nM. As for the experimental part: In order to discover and characterize small molecules which inhibit the constitutive active colorectal cancer cell (CRC) Wnt pathway, a cellular reporter assay was employed. The corresponding assay cell was generated by transfection of the colorectal cancer cell line HCT116 (ATCC, #CCL-247) with the Super TopFlash vector (Morin, Science 275, 1997, 1787-1790; Molenaar et al., Cell 86 (3), 1996, 391-399). The HCT116 cell line is cultivated at 37° C. and 5% CO2 in DMEM/F-12 (Life Technologies, #11320-074), supplemented with 2 mM glutamine, 20 mM HEPES, 1.4 mM pyruvate, 0.15% Na-bicarbonate and 10% foetal bovine serum (GIBCO, #10270), this cancer cell line is pathophysiological relevant since it carries a deletion of position S45 in the β-catenin gene, leading to constitutive active Wnt signaling. Stable transfectants were generated by cotransfection with pcDNA3 and selection of stable transfected cells with 1 mg/ml G418.
(§1) In preparation of the assay, the two cell lines were plated 24 hours before at 10000 cells per well of a 384 micro titre plate (MTP) in 30 μL growth medium. Selective inhibitory activity for small molecules on the mutated Wnt pathway was determined after parallel incubation of both (TOP and FOP) HCT116 reporter cell lines with a compound dilution series from 50 μM to 15 nM in steps of 3.16-fold dilutions in CAFTY buffer (130 mM NaCl, 5 mM KCl, 20 mM HEPES, 1 mM MgCl2, 5 mM NaHCO3, pH 7.4) containing 2 mM Ca^2+ and 0.01% BSA. The compounds were thereby serially prediluted in 100% DMSO and thereafter in addition 50 fold into the CAFTY compound dilution buffer (described above). From this dilution 10 μL were added to the cells in 30 μL growth medium and incubated for 36 hours at 37° C. and 5% CO2. Thereafter luciferase assay buffer (1:1 mixture of luciferase substrate buffer (20 mM Tricine, 2.67 mM MgSO4, 0.1 mM EDTA, 4 mM DTT, 270 μM Coenzyme A, 470 μM Luciferin, 530 μM ATP, ph adjusted to pH 7.8 with a sufficient volume of 5M NaOH) and Triton buffer (30 mL Triton X-100, 115 mL glycerol, 308 mg Dithiothreitol, 4.45 g Na2HPO4.2H2O, 3.03 g TRIS HCl, ad 1 l H20, pH 7.8) was added as equal volume to the compound solution on the cells to determine luciferase expression as a measure of Wnt signaling activity in a luminometer.

Another test relates to HCT116 FOPFlash. Description: Control reporter assay, HCT116 FOP control vector (non-functional TCF elements), luciferase expression. The format is cell-based. The note with it: Homo sapiens, HCT-116, 36 h, HCT116 FOP control reporter cells, 36 hours incubation, dilution series 50 μM to 15 nM. As for the experimental part: In a parallel approach, HCT116 cells were cotransfected with the FOP control vector and pcDNA3. The FOP vector is identical to the TOP construct, but it contains instead of functional TCF elements a randomized, non-functional sequence. For this transfection a stable transfected cell line was generated as well.
as §1
In general terms: A reporter such as luciferase makes a cellular process visible.

As to `COc1ccc(NC(=O)c2ccc(-c3cccs3)nc2)cc1NC(=O)CN1CCOCC1` [Example 24, N-{4-methoxy-3-[(morpholin-4-ylacetyl)amino]phenyl}-6-(thiophen-2-yl)pyridine-3-carboxamide], the results for the negative-log IC50 (pIC50) (in test [1]; in the test on HCT116 FOPFlash) were 5.40 and no more than 4.30, respectively.

In the case of `Cc1csc(-c2nnc(NC(=O)c3ccc(OC(F)(F)F)c(NC(=O)CN4CCN(C)CC4)c3)s2)n1` [Example 63, 3-{[(4-methylpiperazin-1-yl)acetyl]amino}-N-[5-(4-methyl-1,3-thiazol-2-yl)-1,3,4-thiadiazol-2-yl]-4-(trifluoromethoxy)benzamide], the pIC50 (in general, the negative decadic logarithm of the IC50, by convention in mol/L) in test [1] was 5.97; in the test on HCT116 FOPFlash, 4.36.

As for `O=C(CN1CCOCC1)Nc1cc(C(=O)Nc2nnc(-c3cccnc3)s2)ccc1OC1CC1` [Example 35, 4-(cyclopropyloxy)-3-[(morpholin-4-ylacetyl)amino]-N-[5-(pyridin-3-yl)-1,3,4-thiadiazol-2-yl]benzamide], the values for the pIC50 (in test [1]; in the test with HCT116 FOPFlash) were 6.56 and no more than 4.30, respectively.

Take `Cc1nc(-c2nnc(NC(=O)c3ccc(OC(F)(F)F)c(NC(=O)CN4CCOCC4)c3)s2)cs1` [Example 95, N-[5-(2-methyl-1,3-thiazol-4-yl)-1,3,4-thiadiazol-2-yl]-3-[(morpholin-4-ylacetyl)amino]-4-(trifluoromethoxy)benzamide]: the pIC50 is 4.60 in test [1] and no more than 4.30 in the test with HCT116 FOPFlash.

In the case of `O=C(CN1CCOCC1)Nc1cc(C(=O)Nc2nnc(-c3cccnc3)s2)ccc1OC1COC1` [Example 113, 3-[(morpholin-4-ylacetyl)amino)-4-(oxetan-3 yloxy)-N-[5-(pyridin-3-yl)-1,3,4-thiadiazol-2-yl]benzamide], the negative-log IC50 (pIC50) is 4.57 in test [1] and no more than 4.30 in the test on HCT116 FOPFlash.

For `CN1CCN(CC(=O)Nc2cc(C(=O)Nc3nnc(-c4cnc(N)nc4)s3)ccc2OC(F)(F)F)CC1` [Example 31, N-[5-(2-aminopyrimidin-5-yl)-1,3,4-thiadiazol-2-yl]-3-{[(4-methylpiperazin-1-yl)acetyl]amino}-4-(trifluoromethoxy)benzamide], the negative logarithm of the IC50 (pIC50) in test [1] is 6.01; with HCT116 FOPFlash, no more than 4.30.

With `COCCCOc1ccc(C(=O)Nc2nnc(-c3cnccc3C)s2)cc1NC(=O)CN1CCOCC1` [Example 74, 4-(3-methoxypropoxy)-N-[5-(4-methylpyridin-3-yl)-1,3,4-thiadiazol-2-yl)-3-[(morpholin-4-ylacetyl)amino]benzamide], the negative logarithm of the IC50 (pIC50) in test [1] was 5.43; with HCT116 FOPFlash, no more than 4.30.

With `CN1CCN(CC(=O)Nc2cc(C(=O)Nc3cnc(-c4cnc(N)cn4)cn3)ccc2OC(F)(F)F)CC1` [Example 59, N-(5′-amino-2,2′-bipyrazin-5-yl)-3-{[(4-methylpiperazin-1-yl)acetyl]amino}-4-(trifluoromethoxy)benzamide], the pIC50 in test [1] was 5.39; with HCT116 FOPFlash, no more than 4.30.

On to `Cc1ncc(-c2nnc(NC(=O)c3ccc(OC(F)(F)F)c(NC(=O)CN4CCN(C)CC4)c3)s2)s1` [Example 99, 3-{[(4-methylpiperazin-1-yl)acetyl)amino}-N-[5-(2-methyl-1,3-thiazol-5-yl)-1,3,4-thiadiazol-2-yl]-4-(trifluoromethoxy)benzamide], for which the pIC50 in test [1] is 5.07; in the test with HCT116 FOPFlash, no more than 4.30.

Regarding `O=C(CN1CCOCC1)Nc1cc(C(=O)Nc2nnc(-c3cnccc3F)s2)ccc1OC(F)(F)F` [Example 107, N-[5-(4-fluoropyridin-3-yl)-1,3,4-thiadiazol-2-yl]-3-[(morpholin-4-ylacetyl)amino]-4-(trifluoromethoxy)benzamide], the negative-log IC50 (pIC50) (in test [1]; in the test with HCT116 FOPFlash) was no more than 4.30 each time.

In the case of `CC(C(=O)Nc1cc(C(=O)Nc2ccc(-c3ccc(F)nc3)nc2)ccc1OC(F)(F)F)N1CCOCC1` (centres unmarked) [Example 23, N-(6′-fluoro-2,3′-bipyridin-5-yl)-3-{[2-(morpholin-4-yl)propanoyl]amino}-4-(trifluoromethoxy)benzamide], the negative-log IC50 (pIC50) in test [1] is 7.27; in the test with HCT116 FOPFlash, no more than 4.30.

With `COCCCOc1ccc(C(=O)Nc2nnc(-c3cnccc3C)s2)cc1NC(=O)CN1CCN(C)CC1` [Example 114, 4-(3-methoxypropoxy)-3-{[(4-methylpiperazin-1-yl)acetyl)amino}-N-[5-(4-methylpyridin-3-yl)-1,3,4-thiadiazol-2-yl]benzamide], the pIC50 is 4.58 in test [1] and no more than 4.30 in the test on HCT116 FOPFlash.

Regarding `CN1CCN(CC(=O)Nc2cc(C(=O)Nc3nnc(-c4cscn4)s3)ccc2OC(F)(F)F)CC1` [Example 64, 3-{[(4-methylpiperazin-1-yl)acetyl]amino}-N-[5-(1,3-thiazol-4-yl)-1,3,4-thiadiazol-2-yl]-4-(trifluoromethoxy)benzamide], the pIC50 in test [1] is 5.95; in the test with HCT116 FOPFlash, 4.34.

Regarding `CN1CCN(CC(=O)Nc2cc(C(=O)Nc3nnc(-c4cccnc4)s3)ccc2Cl)CC1` [Example 84, 4-chloro-3-{[(4-methylpiperazin-1-yl)acetyl]amino}-N-[5-(pyridin-3-yl)-1,3,4-thiadiazol-2-yl]benzamide hydrochloride], the pIC50 (in test [1]; with HCT116 FOPFlash) was no more than 4.30 each time.

Regarding `O=C(CN1CCOCC1)Nc1cc(C(=O)Nc2nnc(-c3nccs3)s2)ccc1OC(F)(F)F` [Example 101, 3-[(morpholin-4-ylacetyl)amino]-N-[5-(1,3-thiazol-2-yl)-1,3,4-thiadiazol-2-yl]-4-(trifluoromethoxy)benzamide], the negative-log IC50 (pIC50) (in test [1]; in the test on HCT116 FOPFlash) was no more than 4.30 each time.

In the case of `CN1CCN(C2(C(=O)Nc3cc(C(=O)Nc4nnc(-c5cncnc5)s4)ccc3OC(F)(F)F)CC2)CC1` [Example 29, 3-({[1-(4-methylpiperazin-1-yl)cyclopropyl]carbonyl}amino)-N-[5-(pyrimidin-5-yl)-1,3,4-thiadiazol-2-yl]-4-(trifluoromethoxy)benzamide], the values for the pIC50 (in test [1]; with HCT116 FOPFlash) were 6.69 and no more than 4.30, respectively.

For `O=C(CN1CCOCC1)Nc1cc(C(=O)Nc2nnc(-c3cncc(C(F)(F)F)c3)s2)ccc1OC(F)(F)F` [Example 58, 3-[(morpholin-4-ylacetyl)amino]-4-(trifluoromethoxy)-N-{5-[5-(trifluoromethyl)pyridin-3-yl]-1,3,4-thiadiazol-2-yl}benzamide], the negative-log IC50 (pIC50) in test [1] was 5.13; with HCT116 FOPFlash it was 4.56.

`CN1CCN(CC(=O)Nc2cc(C(=O)Nc3nnc(-c4cncnc4)s3)ccc2OC(F)(F)F)CC1` [Example 87, 3-{[(4-methylpiperazin-1-yl)acetyl]amino}-N-[5-(pyrimidin-5-yl)-1,3,4-thiadiazol-2-yl)-4-(trifluoromethoxy)benzamide]: the pIC50 in test [1] was 4.74; in the test with HCT116 FOPFlash it was no more than 4.30.

For the compound `Cc1ccnc(-c2nnc(NC(=O)c3ccc(OC(F)(F)F)c(NC(=O)CN4CCN(C)CC4)c3)s2)c1` [Example 62, 3-{[(4-methylpiperazin-1-yl)acetyl]amino}-N-[5-(4-methylpyridin-2-yl)-1,3,4-thiadiazol-2-yl]-4-(trifluoromethoxy)benzamide], the pIC50 in test [1] was 6.00; with HCT116 FOPFlash, 5.07.

For `O=C(CN1CCOCC1)Nc1cc(C(=O)Nc2nnc(-c3ccncc3)s2)ccc1OC1CC1` [Example 116, 4-(cyclopropyloxy)-3-[(morpholin-4-ylacetyl)amino]-N-[5-(pyridin-4-yl)-1,3,4-thiadiazol-2-yl]benzamide], the pIC50 (in test [1]; with HCT116 FOPFlash) was no more than 4.30 throughout.

Take `CN1CCN(CC(=O)Nc2cc(C(=O)Nc3nnc(-c4cncnc4)s3)ccc2OC2CC2)CC1` [Example 112, 4-(cyclopropyloxy)-3-{[(4-methylpiperazin-1-yl)acetyl]amino}-N-[5-(pyrimidin-5-yl)-1,3,4-thiadiazol-2-yl]benzamide]: the negative-log IC50 (pIC50) is 6.48 in test [1] and no more than 4.30 in the test with HCT116 FOPFlash.

For the compound `CN1CCN(CC(=O)Nc2cc(C(=O)Nc3nnc(-c4cncs4)s3)ccc2OC(F)(F)F)CC1` [Example 68, 3-{[(4-methylpiperazin-1-yl)acetyl]amino}-N-[5-(1,3-thiazol-5-yl)-1,3,4-thiadiazol-2-yl]-4-(trifluoromethoxy)benzamide], the negative logarithm of the IC50 (pIC50) was 5.73 in test [1] and no more than 4.30 in the test with HCT116 FOPFlash.
